# Reference: PubChem BioAssay (NCI)
#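 Five concentrations, 48 hours, 96-well plates. GI50: concentration for 50% inhibition of growth. The concentration for full growth arrest is given as TGI.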
# Experiments:
# Experiment in all cases: DTP human tumour cell line panel, 48 h
# [1] = tested on: SK-MEL-5 melanoma
# [2] = tested on: OVCAR-4 ovarian
# [3] = tested on: HL-60(TB) leukemia
# [4] = tested on: KM12 colon
# [5] = tested on: A498 renal
# [6] = tested on: MDA-MB-468 breast
# [7] = tested on: UACC-62 melanoma
# [8] = tested on: HT29 colon
# [9] = tested on: OVCAR-5 ovarian
# [10] = tested on: 786-0 renal
# [11] = tested on: TK-10 renal
# [12] = tested on: CCRF-CEM leukemia
# [13] = tested on: OVCAR-8 ovarian
# [14] = tested on: SK-OV-3 ovarian
# [15] = tested on: U251 CNS
# [16] = tested on: ACHN renal
# [17] = tested on: SNB-19 CNS
# [18] = tested on: NCI/ADR-RES ovarian
# [19] = tested on: RXF 393 renal
# [20] = tested on: HCC-2998 colon
# [21] = tested on: SN12C renal
# [22] = tested on: T-47D breast
# [23] = tested on: MDA-MB-231 breast
# [24] = tested on: NCI-H226 lung
# [25] = tested on: OVCAR-3 ovarian
# [26] = tested on: HOP-62 NSCLC
# [27] = tested on: NCI-H460 lung
# [28] = tested on: COLO 205 colon
compound,measurement,setting,value
COc1ccc2nc(Cl)c(-c3cc(-c4ccccc4)nc(N)n3)cc2c1,GI50,[1],12.2 µM
same,TGI,[1],24.6 µM
same,GI50,[2],22.3 µM
same,TGI,[2],> 100 µM
same,GI50,[3],1.55 µM
same,TGI,[3],> 100 µM
same,GI50,[4],3.38 µM
same,TGI,[4],12.6 µM
same,GI50,[5],25.9 µM
same,TGI,[5],> 100 µM
same,GI50,[6],4 µM
same,TGI,[6],16.5 µM
same,GI50,[7],11 µM
same,TGI,[7],24 µM
same,GI50,[8],5.11 µM
same,TGI,[8],18.7 µM
same,GI50,[9],6.61 µM
same,TGI,[9],29.1 µM
same,GI50,[10],1.45 µM
same,TGI,[10],4.36 µM
same,GI50,[11],22.1 µM
same,TGI,[11],90.2 µM
same,GI50,[12],2.58 µM
same,TGI,[12],> 100 µM
same,GI50,[13],3.37 µM
same,TGI,[13],18.5 µM
same,GI50,[14],39.7 µM
same,TGI,[14],> 100 µM
same,GI50,[15],3.26 µM
same,TGI,[15],13.2 µM
same,GI50,[16],10.6 µM
same,TGI,[16],30.8 µM
same,GI50,[17],7.62 µM
same,TGI,[17],23.5 µM
same,GI50,[18],4.77 µM
same,TGI,[18],36 µM
same,GI50,[19],3.51 µM
same,TGI,[19],13.7 µM
same,GI50,[20],10.6 µM
same,TGI,[20],22.5 µM
same,GI50,[21],4.71 µM
same,TGI,[21],19.2 µM
same,GI50,[22],7.94 µM
same,TGI,[22],> 100 µM
same,GI50,[23],6.97 µM
same,TGI,[23],38.8 µM
same,GI50,[24],7.23 µM
same,TGI,[24],53.9 µM
same,GI50,[25],3.71 µM
same,TGI,[25],14.5 µM
same,GI50,[26],7.47 µM
same,TGI,[26],31.1 µM
same,GI50,[27],3.58 µM
same,TGI,[27],13.5 µM
same,GI50,[28],10.9 µM
same,TGI,[28],25.8 µM
